Each structure is given as a SMILES string. Square brackets hold non-standard residues; d marks the D form. Peptide text beside a SMILES is read from it. * marks the point of attachment. pY = N[C@@H](Cc1ccc(OP(=O)(O)O)cc1)C(=O)O; Hydrocinnamoyl = O=C(CCc1ccccc1)*; Ac6c = NC1(C(=O)O)CCCCC1; Cbz = O=C(OCc1ccccc1)*

In one assay the target is T1, Growth factor receptor-bound protein 2 (Homo sapiens, UniProt P62993). The assay is described as follows: Binding affinity to Grb2 SH2 domain (unknown origin) by isothermal titration calorimetry. (In ITC the heat of successive injections is recorded.)
Target sequence in this assay (P62993 whole entry, looked up, the tested form may be a part): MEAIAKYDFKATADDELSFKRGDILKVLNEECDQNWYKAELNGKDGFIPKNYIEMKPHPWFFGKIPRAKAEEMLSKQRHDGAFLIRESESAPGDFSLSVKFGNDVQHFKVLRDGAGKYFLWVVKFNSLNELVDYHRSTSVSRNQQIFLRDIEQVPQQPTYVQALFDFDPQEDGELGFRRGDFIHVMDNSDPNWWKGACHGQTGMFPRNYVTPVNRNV
For `NC(=O)C[C@H](NC(=O)C1(NC(=O)[C@H](Cc2ccc(OP(=O)(O)O)cc2)NC(=O)OCc2ccccc2)CCCCC1)C(N)=O` (Cbz-[pY]-[Ac6c]-Asn-NH2), the Ka worked out at 6.5 ×10⁶ /M.
Same read-out and setting: the result for `NC(=O)C[C@H](NC(=O)C1(NC(=O)[C@H](Cc2ccc(OP(=O)(O)O)cc2)NC(=O)CCC2CCCCC2)CCCCC1)C(N)=O` reads 28.8 ×10⁶ /M.
Molecule `NC(=O)C[C@H](NC(=O)C1(NC(=O)[C@H](Cc2ccc(OP(=O)(O)O)cc2)NC(=O)CCc2ccccc2)CCCCC1)C(N)=O` (Hydrocinnamoyl-[pY]-[Ac6c]-Asn-NH2) came in with a Ka of 23.4 ×10⁶ /M.
In turn, `NC(=O)C[C@H](NC(=O)C1(NC(=O)[C@H](Cc2ccc(OP(=O)(O)O)cc2)NC(=O)OCc2cccc(N)c2)CCCCC1)C(N)=O` displayed a Ka of 8.8 ×10⁶ /M.
On the same count and under the same terms, under `CC(=O)N[C@@H](Cc1ccc(OP(=O)(O)O)cc1)C(=O)NC1(C(=O)N[C@@H](CC(N)=O)C(N)=O)CCCCC1` (HELM PEPTIDE1{[ac].[O=C([C@H](Cc1ccc(OP(=O)(O)O)cc1)N[*:1])[*:2]].[O=C(C1(N[*:1])CCCCC1)[*:2]].N.[am]}$$$$V2.0) stands 7 ×10⁶ /M.
On to `Cn1cc(CCC(=O)N[C@@H](Cc2ccc(OP(=O)(O)O)cc2)C(=O)NC2(C(=O)N[C@@H](CC(N)=O)C(N)=O)CCCCC2)c2ccccc21`, for which the Ka stood at 11.4 ×10⁶ /M.

Another assay addresses T1, Growth factor receptor-bound protein 2. As to the kind of experiment: Binding affinity to Grb2 SH2 domain (60 to 151) (unknown origin) expressed in Escherichia coli BL21(DE3) after overnight incubation by ELISA.
Target sequence in this assay (P62993 whole entry, the tested form may be a part): as the sequence (P62993 whole entry, looked up, the tested form may be a part) above
The term IC50 denotes the concentration at which inhibition is half-maximal. A higher IC50 goes with weaker potency in that assay. As to `C[C@](NC(=O)[C@H](Cc1ccc(OP(=O)(O)O)cc1)NC(=O)OCc1cccc(N)c1)(C(=O)N[C@@H](CC(N)=O)C(N)=O)c1ccc(OP(=O)(O)O)cc1`, the IC50 is 13 nM.

Source of the values: ChEMBL document CHEMBL3297721, “Protein-ligand interactions: probing the energetics of a putative cation-π interaction” (Bioorg Med Chem Lett, 2014).
